{"source": "patent US20080299101A1", "about": "“Cancer Treatment Resistance and Agents Modulating Such Resistance” (CENTRE NATIONAL DE LA RECHERCHE SCIENTIFIQUE (CNRS INSTITUT …, priority 2004, published 2008)", "key": {"HCT116/R2": {"test_system": "HCT116/R2", "conditions": "oxaliplatin 0 μM (actD alone)", "procedure": "(§1) Cytotoxicity assays were performed by seeding 4000 cells per well in 96 well plates. […] Cytotoxicity measurements were carried out using the WST-1 colorimetric assay (Boehringer Mannheim) according to the manufacturer's recommendation."}, "HCT116/R1": {"test_system": "HCT116/R1", "conditions": "oxaliplatin 0 μM (actD alone)", "procedure": "as §1"}, "HCT116/S": {"test_system": "HCT116/S", "conditions": "oxaliplatin 0 μM (actD alone)", "procedure": "as §1"}, "[1]": {"test_system": "HCT116/S, HCT116/R1, HCT116/R2", "assay": "Modulation of oxaliplatin cytotoxicity using actinomycin D preincubation (statement in words)", "type": "cell-based", "conditions": "preincubation at moderately toxic concentrations; preliminary"}}, "note": "Entries after “also recorded” stand apart in the source; their conditions may differ. *1 amine or outer side, *2 acyl side, *3 side chain or, on linkers, in order; H or OH if unused. Where a SMILES comes first, the peptide text is derived from it. Bridges are numbered along the chain shown (N, C = ends). Roman numbers before positions name the chains, in order. [ ]: non-standard residue; d: D form. Actinocin(9to1) = Cc1c2oc3c(C)ccc(C(=O)[*:1])c3nc-2c(C(=O)[*:2])c(N)c1=O; NMeV = CN[C@H](C(=O)O)C(C)C; Sar = CNCC(=O)O", "data": [{"smiles": "Cc1c2oc3c(C)ccc(C(=O)N[C@@H]4C(=O)N[C@H](C(C)C)C(=O)N5CCC[C@H]5C(=O)N(C)CC(=O)N(C)[C@@H](C(C)C)C(=O)O[C@@H]4C)c3nc-2c(C(=O)N[C@@H]2C(=O)N[C@H](C(C)C)C(=O)N3CCC[C@H]3C(=O)N(C)CC(=O)N(C)[C@@H](C(C)C)C(=O)O[C@@H]2C)c(N)c1=O", "note": "[actD, actinomycin D] (I: T[dV]P[Sar][NMeV] / II: T[dV]P[Sar][NMeV]; ester I:1-I:C, II:1-II:C; linker I:N-II:N via Actinocin(9to1))", "values": [{"measurement": "Cytotoxicity of oxali + actD 0.04 nM", "setting": "HCT116/R2; actD 0.04 nM", "result": 20.6, "unit": "%"}, {"measurement": "Cytotoxicity of oxali + actD 0.12 nM", "setting": "HCT116/R2; actD 0.12 nM", "result": 17.7, "unit": "%"}, {"measurement": "Cytotoxicity of oxali + actD 0.36 nM", "setting": "HCT116/R2; actD 0.36 nM", "result": 21.6, "unit": "%"}, {"measurement": "Cytotoxicity of oxali + actD 0.04 nM", "setting": "HCT116/R1; actD 0.04 nM", "result": 17.3, "unit": "%"}, {"measurement": "Cytotoxicity of oxali + actD 0.12 nM", "setting": "HCT116/R1; actD 0.12 nM", "result": 18, "unit": "%"}, {"measurement": "Cytotoxicity of oxali + actD 0.04 nM", "setting": "HCT116/S; actD 0.04 nM", "result": 9.1, "unit": "%"}, {"measurement": "Cytotoxicity of oxali + actD 0.12 nM", "setting": "HCT116/S; actD 0.12 nM", "result": 27.6, "unit": "%"}, {"measurement": "Cytotoxicity of oxali + actD 0.36 nM", "setting": "HCT116/S; actD 0.36 nM", "result": 85.4, "unit": "%"}, {"measurement": "Effect of actinomycin D preincubation on oxaliplatin activity", "setting": "[1]", "result": "synergy effect; also recorded: synergistic effect"}]}]}
